Experimental data as given in patent US20210128537A1, “T-TYPE CALCIUM CHANNEL MODULATORS AND METHODS OF USE THEREOF” (Praxis Precision Medicines, inc., priority 2016, published 2021).

Columns and labels:
Type in all cases: in vivo, rat
post-SE rats [1] = assay: Forced swim test in post-SE rats; conditions: Z944 60 mg/kg/day for 4 weeks, p<0.05
Protocol: (§1) All behavioural tests were performed in a light-controlled (˜110 lux), closed, quiet and clean room in the. Behavioural testing was performed in a blinded manner to the treatment groups. All of the behavioural tests were video recorded for future analysis. OF, EPM and MWM sessions were filmed using a digital camera mounted above the centre of the arena, which was connected to a computer for the recording and objective analysis of digitized behavioural tests (EthoVision 3.0.15, Noldus). The first behavioural test was performed one week after the last EEG recording. The different behavioural tests/session were performed 24 hours apart from each other. All tests were scored by an experienced observer who was blind to the experimental conditions of the animals.
The FST was performed in a clear Plexiglas cylinder (50 cm long×30 cm diameter) filled with water (25±1° C.). The FST was divided into a 15-min training session and a 5-min test session performed 24 h later, as previously described. Immobility time and swimming time were analysed.

post-SE rats [2] = assay: Sucrose preference test in post-SE rats; conditions: Z944 60 mg/kg/day for 4 weeks, p<0.05
Protocol: as §1
The SPT was used to assess depressive-like behaviour. The animals remained to stay in their same home cage. One hour before the start of the test, the animals were given up to 0.5 ml of the testing 2% sucrose to ensure that the animals would drink the sucrose solution. The animals were presented with two bottles, one filled with water and the other one filled with 2% sucrose in water for 24 hours. On both tests, bottle position was randomised to avoid position preference. Total fluid intake and percentage preference for sucrose were recorded.

post-SE rats [3] = assay: Morris water maze in post-SE rats; conditions: Z944 60 mg/kg/day, levetiracetam 200 mg/kg/day for 4 weeks
Protocol: as §1
The MWM is a circular black PVC plastic pool of 160 cm diameter which is filled to a depth of either 2.5 cm above a 10 cm diameter hidden platform water at 25±1° C. The platform is located in the centre of the South-West quadrant during the first 3 sessions and changed to North-East quadrant for the remaining sessions. Visual cues are placed in the main 4 cardinal points, consisting of large black and white symbols that serve as orientation landmarks for the rats. […] The latency to find the escape platform, speed and strategic path used by the animal to locate the platform are recorded. […]

fully kindled rats = assay: Amygdala kindling model, anti-seizure testing in fully kindled rats
Protocol: Animals were implanted with EEG recording electrodes and with a stimulating bipolar electrode in the left basolateral amygdaloid nucleus using the coordinates AP±3.0 mm, ML±5.9 mm, DV±6.0 mm. The after discharge threshold (ADT) for each animal was determined by administering a stimulation (frequency=60.1 Hz; duration=1000 μs) at one minute intervals until a seizure was clicited. The amplitude of the stimulation was started at 0.02 mA with increments of 0.02 mA; the stimulations were stopped when the animal experienced a seizure of ≥6 second duration, or if the amplitude of 0.40 mA was reached without the occurrence of a seizure. […] Kindling was performed twice a day for five days per week with an endpoint of 30 stimulations or until the animal presented five class V seizures (referred to as fully kindled). The seizure severity was classified from 0 (less severe) to V (most severe) according to the Racine Scale (Racine, 1972b). Sham kindled animals were handled the same way as the kindled animals, although no electrical stimulation was applied. An animal is classified as fully kindled once it has experienced 5 class V seizures.
Drug testing was performed twice a week until all animals had received each of the seven treatments, Z944 (5 mg/kg, 10 mg/kg, 30 mg/kg and 100 mg/kg), vehicle (10% DMSO/90% Na^+-CMC or CBZ vehicle 20% DMSO/40% propylene glycol/40% saline), ETX (100 mg/kg) or CBZ (30 mg/kg). Prior to drug testing each day, animals were subjected to a maximum of three pre-drug stimulations 30 minutes apart. The animals qualified for testing on that particular day if a class IV or V seizure was elicited in at least 2 out of 3 pre-drug stimulations. Stimulations consisted of a 1 second train of 1 ms biphasic square wave pulses at a frequency of 60 Hz with current amplitude based on each animal ADT that elicited a seizure. Thirty minutes after the last pre-drug stimulation, the animals received an IP injection of one of the seven treatments in a randomized manner at a dose volume of 5 ml/kg. Six post-drug stimulations were administered to each animal, the first stimulation was given 15 minutes post drug injection (to allow brain penetration of the drugs) and the following five stimulations were delivered in 30 minutes intervals thereafter with the seizure class elicited being recorded after each post-drug stimulation. The duration of the primary and total seizures, if any, were recorded. An investigator blinded to the drug treatment analyzed all EEG recordings. Primary after discharge is the duration of the seizure elicited from the kindling stimulation. Total after discharge is the total seizure duration including any secondary seizures that occur after the primary after discharge. Primary after discharge duration and total seizure duration were recorded and averaged for the 6 post-drug stimulations.
Animal weight and behaviour when handled were monitored for the duration of the experimental period. Additionally, animals were assessed by observation for any adverse effects of drugs on grooming, fur appearance, gait, and excretion.

CC(C)(C)NC(=O)CN1CCC(CNC(=O)c2cc(F)cc(Cl)c2)CC1 [Z944]
forced swim test immobility time (post-SE rats [1]): vehicle had an increased immobility time when compared to both sham groups and post-SE+Z944 group | sucrose preference (post-SE rats [2]): vehicle had a reduced sucrose preference compared to both sham groups and post-SE+Z944 group | time to find the hidden platform (cognition) (post-SE rats [3]): Improves Cognition | seizure class elicited (Racine scale) (fully kindled rats; IP, Z944 5, 10, 30, 100 mg/kg, CBZ 30 mg/kg, compared to vehicle): does not suppress seizures | primary after discharge (fully kindled rats; IP, all four doses of Z944, ETX 100 mg/kg, CBZ 30 mg/kg, compared to vehicle (p>0.5)): did not affect the primary after discharge | adverse effects (sedation scale 0-4) compared to vehicle (fully kindled rats; Z944 100 mg/kg, CBZ 30 mg/kg IP, p<0.01): significantly higher adverse effects | adverse effects (sedation scale 0-4), dose dependence (fully kindled rats; Z944 5 to 100 mg/kg IP): dose dependent
